Reference: PubChem BioAssay AID1919017 (Molecular Pharmacology Branch, DTP, NCI, 2023)

Tested on: SW1271 complex spheroids with HUVEC/MSC, growth, % test/control
Experiment: Anticancer human tumor SW1271 cell line growth inhibition [AhR];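 note: spheroids exposed to agents for 7 days before readout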
Details: for IC50: curve of first compound; for viability, T/C: stronger effect = lower value
Excerpt: Multicellular complex tumor spheroid response to aryl hydrocarbon receptor antagonists in combination with a variety of drugs and investigational agents in selected tumor cell lines
The current study was undertaken to assess response to aryl hydrocarbon receptor antagonists in combination with standard-of-care drugs and investigational agents in solid tumor complex spheroid models. Complex spheroids include a stromal component modeled by human endothelial cells (HUVEC) and fibroblasts modeled by human mesenchymal stem cells (MSCs). The concentration ranges selected for each drug and investigational agent were based upon clinically achievable concentrations if the clinical Cmax of the agent was known.
Compounds. The drugs and investigational agents: BAY 2416964 (NSC825713), GNF351 (NSC835774), CH-223191 (NSC835775), CPI-455 (NSC825282), aza-TdCyd (NSC777586), decitabine (NSC127716), belinostat (NSC758774), entinostat (NSC756642), pevonedistat (NSC761192), tazemetostat (NSC777109), talazoparib (NSC765396), olaparib (NSC753686), selinexor (NSC780203), nedisertib (M3814, NSC802822), bortezomib (NSC756655), venetoclax (NSC766270), doxorubicin (NSC123127), elimusertib (BAY189344, NSC800525), ceralasertib (AZD6738, NSC777638), TAK-243 (NSC785004), alisertib (NSC759677), etoposide (NSC141540), topotecan (NSC609699), eribulin (NSC707389), gemcitabine (NSC613327), carboplatin (NSC241240), cisplatin (NSC119875), and SN-38 (NSC673596) were obtained from the National Cancer Institute (NCI) Developmental Therapeutics Program Chemical Repository (32). The FDA-approved anticancer drug set is available from the Developmental Therapeutics Program at https://dtp.cancer.gov/organization/dscb/obtaining/available plates.htm. […] The stock solutions were prepared in dimethyl sulfoxide (DMSO, Sigma-Aldrich, St. Louis, MO, cat. D2650), except for the platinum compounds which were prepared in saline (Quality Biological, Gaithersburg, MD, cat. 114-055-101), at 800-fold the tested concentration and stored at -70 degrees C prior to their use. All drugs and investigational agents were tested over a range starting from a high concentration at or near the clinical Cmax and decreasing in half-log increments. If the clinical Cmax for an agent had not been determined, the highest concentration tested was 10 microM (Table 1).
Cell Culture. All cells were maintained in an incubator at 37 degrees C and 5% CO2 with 95% humidity. The PDC lines were cultured according to standard operating procedures established by the NCI PDMR (https://pdmr.cancer.gov). Briefly, all PDCs were thawed and cultured in Matrigel-coated flasks prepared with a working solution of 1X Ham's F-12 nutrient mix, without supplementation (Invitrogen, Waltham, MA, cat. 11765054), 100 U/mL penicillin-streptomycin (Invitrogen, cat. 15140122), and 2.5% Matrigel (Corning Inc., Corning, NY, cat. 354248) for the first three passages. All PDCs were cultured in complete DMEM/F-12 media containing advanced DMEM/F-12 (Invitrogen, cat. 12634028), 4.9% defined fetal bovine serum, heat inactivated (HyClone Laboratories Inc., Logan, UT, cat. SH30070.03HI), 389 ng/mL hydrocortisone (Sigma-Aldrich, cat. H4001), 9.7 ng/mL human EGF recombinant protein (Invitrogen, cat. PHG0313), 23.4 microg/mL adenine (Sigma-Aldrich, cat. A2786), 97.3 U/mL penicillin-streptomycin (Invitrogen, cat. 15140122), 1.9 mM L-glutamine (Invitrogen, cat. 25030081), and 9.7 microM Y-27632 dihydrochloride (Tocris Bioscience, Bristol, United Kingdom, cat. 1254). The PDCs were cultured in complete DMEM/F12 media without 10 microM Y-27632 dihydrochloride for at least two passages prior to the screen. The established cell lines NCI-H1341 and […] were cultured in DMEM/F-12, HEPES (Invitrogen, cat. 11330032), 5% defined fetal bovine serum (HyClone Laboratories Inc., cat. SH30070.03), ITS premix universal culture supplement [insulin (5 microg/mL), transferrin (5 microg/mL), and selenious acid (5 ng/mL)] […]

[1] = second compound 0.1 µM, first compound 0.0316 µM
[2] = second compound 0.1 µM, first compound 0.1 µM
[3] = second compound 0.1 µM, first compound 0.316 µM
[4] = second compound 0.1 µM, first compound 1 µM
[5] = second compound 0.1 µM, first compound 3.16 µM
[6] = second compound 0.1 µM, first compound 10 µM
[7] = second compound 0.316 µM, first compound 0.0316 µM
[8] = second compound 0.316 µM, first compound 0.1 µM
[9] = second compound 0.316 µM, first compound 0.316 µM
[10] = second compound 0.316 µM, first compound 1 µM
[11] = second compound 0.316 µM, first compound 3.16 µM
[12] = second compound 0.316 µM, first compound 10 µM
[13] = second compound 1 µM, first compound 0.0316 µM
[14] = second compound 1 µM, first compound 0.1 µM
[15] = second compound 1 µM, first compound 0.316 µM
[16] = second compound 1 µM, first compound 1 µM
[17] = second compound 1 µM, first compound 3.16 µM
[18] = second compound 1 µM, first compound 10 µM
[19] = second compound 3.16 µM, first compound 0.0316 µM
[20] = second compound 3.16 µM, first compound 0.1 µM
[21] = second compound 3.16 µM, first compound 0.316 µM
[22] = second compound 3.16 µM, first compound 1 µM
[23] = second compound 3.16 µM, first compound 3.16 µM
[24] = second compound 3.16 µM, first compound 10 µM
[25] = second compound 10 µM, first compound 0.0316 µM
[26] = second compound 10 µM, first compound 0.1 µM
[27] = second compound 10 µM, first compound 0.316 µM
[28] = second compound 10 µM, first compound 1 µM
[29] = second compound 10 µM, first compound 3.16 µM
[30] = second compound 10 µM, first compound 10 µM

Structure (SMILES)	IC50 (second compound 0.1 µM)	IC50 (second compound 0.316 µM)	IC50 (second compound 1 µM)	IC50 (second compound 3.16 µM)	IC50 (second compound 10 µM)	viability, T/C [1]	viability, T/C [2]	viability, T/C [3]	viability, T/C [4]	viability, T/C [5]	viability, T/C [6]	viability, T/C [7]	viability, T/C [8]	viability, T/C [9]	viability, T/C [10]	viability, T/C [11]	viability, T/C [12]	viability, T/C [13]	viability, T/C [14]	viability, T/C [15]	further results
O=C(c1cc(Cc2n[nH]c(=O)c3ccccc23)ccc1F)N1CCN(C(=O)C2CC2)CC1 + Cc1ccccc1N=Nc1ccc(NC(=O)c2ccnn2C)c(C)c1	> 10000 nM	> 10000 nM	> 10000 nM	> 10000 nM	> 10000 nM	82.5%	101%	98.3%	91.4%	88.4%	78.9%	106%	104%	102%	98.7%	96.3%	90.8%	79.5%	116%	104%	viability, T/C [16]: 92.5%; viability, T/C [17]: 114%; viability, T/C [18]: 98.3%; viability, T/C [19]: 94.3%; viability, T/C [20]: 109%; viability, T/C [21]: 104%; viability, T/C [22]: 81.9%; viability, T/C [23]: 99.2%; viability, T/C [24]: 100%; viability, T/C [25]: 89.4%; viability, T/C [26]: 107%; viability, T/C [27]: 108%; viability, T/C [28]: 83.5%; viability, T/C [29]: 89.5%; viability, T/C [30]: 102%
Nc1ccn(C2OC(CO)C(O)C2(F)F)c(=O)n1 (stereo not given) + Cc1ccccc1N=Nc1ccc(NC(=O)c2ccnn2C)c(C)c1	< 31.6 nM	66.1 nM	< 31.6 nM	< 31.6 nM	335 nM	39.2%	48.4%	47.2%	52.8%	41.3%	37.2%	54.6%	49.8%	41.8%	39.5%	39%	45.1%	41.1%	50.1%	56.7%	viability, T/C [16]: 41.5%; viability, T/C [17]: 45.6%; viability, T/C [18]: 40.3%; viability, T/C [19]: 43.2%; viability, T/C [20]: 51%; viability, T/C [21]: 40.7%; viability, T/C [22]: 44.2%; viability, T/C [23]: 39.7%; viability, T/C [24]: 48.5%; viability, T/C [25]: 56.5%; viability, T/C [26]: 57.3%; viability, T/C [27]: 50.2%; viability, T/C [28]: 43.1%; viability, T/C [29]: 44.7%; viability, T/C [30]: 50.4%
